Data as given in PubChem BioAssay (NCI).
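In this assay, cells in 96-well plates receive the compound at five concentrations for 48 hours. Endpoints are linearly interpolated between the surrounding concentrations. GI50 marks 50% less growth. The concentration for full growth arrest is given as TGI.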

Assays:
Assay in all cases: DTP human tumour cell line panel, 48 h
COLO 205 colon = test system: COLO 205 colon
IGROV1 ovarian = test system: IGROV1 ovarian
HCT-116 colon = test system: HCT-116 colon
786-0 renal = test system: 786-0 renal
EKVX NSCLC = test system: EKVX NSCLC
CAKI-1 renal = test system: CAKI-1 renal
SK-MEL-28 melanoma = test system: SK-MEL-28 melanoma
UACC-62 melanoma = test system: UACC-62 melanoma
M14 melanoma = test system: M14 melanoma
SF-268 CNS = test system: SF-268 CNS

Compound	GI50 (COLO 205 colon) [µM]	TGI (COLO 205 colon) [µM]	GI50 (IGROV1 ovarian) [µM]	TGI (IGROV1 ovarian) [µM]	GI50 (HCT-116 colon) [µM]	TGI (HCT-116 colon) [µM]	GI50 (786-0 renal) [µM]	TGI (786-0 renal) [µM]	GI50 (EKVX NSCLC) [µM]	TGI (EKVX NSCLC) [µM]	GI50 (CAKI-1 renal) [µM]	TGI (CAKI-1 renal) [µM]	GI50 (SK-MEL-28 melanoma) [µM]	TGI (SK-MEL-28 melanoma) [µM]	GI50 (UACC-62 melanoma) [µM]	TGI (UACC-62 melanoma) [µM]	GI50 (M14 melanoma) [µM]	TGI (M14 melanoma) [µM]	GI50 (SF-268 CNS) [µM]	TGI (SF-268 CNS) [µM]
Oc1cc(Cl)ccc1Oc1ccc(Cl)cc1Cl	3.88	13.3	4.73	17	2.55	6.43	2.47	6.61	3.04	11.9	4.84	17.8	3.09	10.4	2.16	5	2.86	7.24	4.53	16.4
Cc1ccc2c(c1)ncn2-c1ncnc2c1CC(C)c1ccccc1N2C (stereo not drawn)	0.198	0.666	0.256	7.68	0.0669	13	0.487	14.7	0.154	18	0.127	13.7	1.84	15.6	–	–	0.0587	14.1	0.209	15.6
C=C[C@]1(C)C=C2C(=O)[C@@]3(O)OC[C@@]4(CCCC(C)(C)C43O)C2(O)C(O)C1 (stereo partly drawn)	1.54	3.08	1.55	6.36	1.18	2.46	2.21	5.51	15	31.3	2.38	7.71	4.26	15.6	7.77	21.5	1.55	3.01	11.3	23.9
O=C(O)CCC1CCc2cccc3occ1c23 (stereo not drawn)	–	> 100	–	> 100	–	> 100	–	> 100	–	> 100	–	> 100	–	> 100	–	> 100	–	> 100	–	> 100
N#CC1C(N)=NNC12Nc1ccccc1N2 (stereo not drawn)	16.5	48.9	11.9	71.3	34.1	> 100	45	> 100	14.9	64.6	11.7	74.5	27.9	> 100	3.28	33.8	65.9	> 100	–	–
CC(C)(Br)C(=O)/C=C/c1ccccc1	–	22	–	1.79	–	–	–	2.22	–	23	–	17.3	–	28.9	–	19	–	4.88	–	51.2
CC(=O)OC1C2(CC3N4C(=O)C5(CO)SSC4(CC31O)C(=O)N5C)OC(C)C(C)(C)C2=O (stereo not drawn)	–	–	0.117	0.577	0.0696	0.212	0.234	0.528	0.124	0.709	1.88	3.86	0.0141	0.0696	0.0103	0.0322	0.253	0.722	0.896	2.95
